Experimental data as given in patent publication US20190367516A1 (Bayer Pharma Aktiengesellschaft, priority 2015, published 2019).
Like-named read-outs stand apart in the source and are kept apart here.

Tests used:
human M2 receptor [1] = target: T1, human M2 receptor (Homo sapiens, UniProt P08172); format: cell-based; conditions: α >1 = positive cooperativity
T1 sequence (P08172 1-466): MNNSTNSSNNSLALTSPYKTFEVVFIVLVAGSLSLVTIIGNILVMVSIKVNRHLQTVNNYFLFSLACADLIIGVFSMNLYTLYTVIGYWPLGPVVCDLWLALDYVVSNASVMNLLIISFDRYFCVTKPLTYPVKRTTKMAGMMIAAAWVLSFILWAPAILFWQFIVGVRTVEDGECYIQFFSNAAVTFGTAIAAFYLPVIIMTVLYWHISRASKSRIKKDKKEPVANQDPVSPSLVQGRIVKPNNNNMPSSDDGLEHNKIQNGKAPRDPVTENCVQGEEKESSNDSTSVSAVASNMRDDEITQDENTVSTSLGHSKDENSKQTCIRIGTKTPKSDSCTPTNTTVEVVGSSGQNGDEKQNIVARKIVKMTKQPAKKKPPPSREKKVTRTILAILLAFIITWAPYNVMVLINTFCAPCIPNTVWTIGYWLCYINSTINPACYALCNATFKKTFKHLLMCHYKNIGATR

human M2 receptor [2] = target: T1, human M2 receptor; conditions: for Emax: read-out: Efficiency, boosting of the acetylcholine effect at EC20 acetylcholine concentration; for Efficiency: boosting of the acetylcholine effect at EC20 acetylcholine concentration
[3] = shift of acetylcholine dose-response curve (Allosteric EC50 shift)
[4] = Receptor activity EC50, allosteric potency at EC20 acetylcholine, M2-GIRK1/4 reporter cells, in some cases mean of two or more determinations
[5] = shift in the acetylcholine dose-response curve (Allosteric EC50 shift, GraphPad PRISM)
[6] = Receptor activity EC50, M2-GIRK1/4 activation test, acetylcholine at EC20, allosteric potency, in some cases mean values from two or more determinations

Compound | Cooperativity (alpha factor) (human M2 receptor [1]; [3]) | Cooperativity (alpha factor) (human M2 receptor [1]; [5]) | EC50 (human M2 receptor [2]; [6]) | further results
COC(=O)[C@@H]1CN(c2ccc3c(=O)c(C(=O)N[C@@H](C4CC4)C(F)(F)F)cn(-c4c(F)cc(F)cc4F)c3n2)C(=O)O1 [Example 666, Methyl (5S)-3-[6-{[(1S)-1-cyclopropyl-2,2,2-trifluoroethyl]carbamoyl}-5-oxo-8-(2,4,6-trifluorophenyl)-5,8-dihydro-1,8-naphthyridin-2-yl]-2-oxo-1,3-oxazolidine-5-carboxylate] | 60 |  |  | EC50 (human M2 receptor [2]; [4]): 0.022 µM; Emax (human M2 receptor [2]; M2-GIRK1/4 reporter cells): 100%
CC[C@@H](NC(=O)c1cn(-c2c(F)cccc2F)c2nc(N3CC4CC4(O)C3)ccc2c1=O)C(F)(F)F (mixture of isomers) [Example 304, 1-(2,6-Difluorophenyl)-7-[1-hydroxy-3-azabicyclo[3.1.0]hex-3-yl]-4-oxo-N-[(2R)-1,1,1-trifluorobutan-2-yl]-1,4-dihydro-1,8-naphthyridine-3-carboxamide] |  | 24 | 0.009 µM | 
CCC(NC(=O)c1cn(-c2ccc(F)cc2F)c2nc(N3CCCC3=O)ccc2c1=O)C(F)(F)F (centres unmarked) [Example 177] |  | 5 | 0.138 µM | 
CC[C@H](NC(=O)c1cn(-c2ccc(F)cc2F)c2nc(N3CCC(O)C3)ccc2c1=O)C(F)(F)F (single isomer, unassigned) [Example 220] |  | 29 | 0.116 µM | 
COC(=O)N1CCN(c2ccc3c(=O)c(C(=O)NC45CC6CC(CC(C6)C4)C5)cn(-c4ccc(F)cc4F)c3n2)CC1 [Example 4, Methyl 4-[8-(2,4-difluorophenyl)-5-oxo-6-(tricyclo[3.3.1.1^3,7]dec-1-ylcarbamoyl)-5,8-dihydro-1,8-naphthyridin-2-yl]piperazine-1-carboxylate] |  | 30 | 0.024 µM | 
CCC(COC(F)(F)F)NC(=O)c1cn(-c2c(F)cc(F)cc2F)c2nc(N3C[C@@H](O)[C@H](O)C3)ccc2c1=O (single isomer, unassigned) [Example 578] | 29 |  |  | EC50 (human M2 receptor [2]; [4]): 0.017 µM; Efficiency (human M2 receptor [2]; M2-GIRK1/4 reporter cells): 100.0%
CC[C@@H](NC(=O)c1cn(-c2ccc(F)cc2F)c2nc(N3CCNC3=O)ccc2c1=O)C(F)(F)F [Example 320, 1-(2,4-Difluorophenyl)-4-oxo-7-(2-oxoimidazolidin-1-yl)-N-[(2R)-1,1,1-trifluorobutan-2-yl]-1,4-dihydro-1,8-naphthyridine-3-carboxamide] |  | 6 | 0.13 µM | 
CC12CCC(NC(=O)c3cn(-c4ccc(F)cc4F)c4nc(N5CC[C@@H](O)C5)ccc4c3=O)(CC1)CC2 [Example 20, 1-(2,4-Difluorophenyl)-7-[(3R)-3-hydroxypyrrolidin-1-yl]-N-(4-methylbicyclo[2.2.2]oct-1-yl)-4-oxo-1,4-dihydro-1,8-naphthyridine-3-carboxamide] |  | 34 | 0.042 µM | 
CC[C@@H](NC(=O)c1cn(-c2ccc(F)cc2F)c2nc(N3CC(C)NC3=O)ccc2c1=O)C(F)(F)F (single isomer, unassigned) [Example 432] | 26 |  |  | EC50 (human M2 receptor [2]; [4]): 0.04 µM; Emax (human M2 receptor [2]; M2-GIRK1/4 reporter cells): 94%
CC[C@@H](NC(=O)c1cn(-c2ccc(F)cc2F)c2nc(N3CCC(O)C3=O)ccc2c1=O)C(F)(F)F (single isomer, unassigned) [Example 226] |  | 35 | 0.083 µM | 
O=C(NC(CC(F)(F)F)C1CC1)c1cn(-c2c(F)cc(F)cc2F)c2nc(N3C[C@@H](O)CC3=O)ccc2c1=O (single isomer, unassigned) [Example 514] | 30 |  |  | Efficiency (human M2 receptor [2]; M2-GIRK1/4 reporter cells): 99.0%; EC50 (human M2 receptor [2]; read-out: Receptor activity EC50, allosteric potency at EC20 acetylcholine, M2-GIRK1/4 reporter cells, in some cases mean of two or more determinations): 0.01 µM
CC(C)C(NC(=O)c1cn(-c2c(F)cc(F)cc2F)c2nc(N3C[C@@H](O)[C@H](O)C3)ccc2c1=O)C(C)C [Example 474, 7-[(3R,4R)-3,4-Dihydroxypyrrolidin-1-yl]-N-(2,4-dimethylpentan-3-yl)-4-oxo-1-(2,4,6-trifluorophenyl)-1,4-dihydro-1,8-naphthyridine-3-carboxamide] | 44 |  |  | EC50 (human M2 receptor [2]; [4]): 0.005 µM; Emax (human M2 receptor [2]; M2-GIRK1/4 reporter cells): 100%
O=C(NC(c1ccccc1Cl)C(F)(F)F)c1cn(-c2ccc(F)cc2F)c2nc(N3C[C@@H](O)CC3=O)ccc2c1=O (mixture of isomers) [Example 211, N-[1-(2-Chlorophenyl)-2,2,2-trifluoroethyl]-1-(2,4-difluorophenyl)-7-[(4S)-4-hydroxy-2-oxopyrrolidin-1-yl]-4-oxo-1,4-dihydro-1,8-naphthyridine-3-carboxamide] |  | 35 | 0.021 µM | 
CC[C@H](NC(=O)c1cn(-c2c(F)cc(F)cc2Cl)c2nc(N3CCC(C)C3=O)ccc2c1=O)C(F)(F)F (mixture of isomers) [Example 422, 1-(2-Chloro-4,6-difluorophenyl)-7-[3-methyl-2-oxopyrrolidin-1-yl]-4-oxo-N-[(2S)-1,1,1-trifluorobutan-2-yl]-1,4-dihydro-1,8-naphthyridine-3-carboxamide] | 16 |  |  | EC50 (human M2 receptor [2]; [4]): 0.006 µM; Emax (human M2 receptor [2]; M2-GIRK1/4 reporter cells): 79%
O=C(NC(c1cccc(F)c1)C(F)(F)F)c1cn(-c2ccc(F)cc2F)c2nc(N3C[C@@H](O)CC3=O)ccc2c1=O (mixture of isomers) [Example 272, 1-(2,4-Difluorophenyl)-7-[(4S)-4-hydroxy-2-oxopyrrolidin-1-yl]-4-oxo-N-[2,2,2-trifluoro-1-(3-fluorophenyl)ethyl]-1,4-dihydro-1,8-naphthyridine-3-carboxamide] |  | 55 | 0.033 µM | 
CC(C)(C)[C@@H](NC(=O)c1cn(-c2c(F)cc(F)cc2F)c2nc(N3C[C@@H](O)CC3=O)ccc2c1=O)C(F)(F)F [Example 357, 7-[(4S)-4-Hydroxy-2-oxopyrrolidin-1-yl]-4-oxo-N-[(2R)-1,1,1-trifluoro-3,3-dimethylbutan-2-yl]-1-(2,4,6-trifluorophenyl)-1,4-dihydro-1,8-naphthyridine-3-carboxamide] |  | 63 | 0.004 µM | 
O=C(NC1(C(F)(F)F)CCC1)c1cn(-c2c(F)cc(F)cc2F)c2nc(N3CCNC3=O)ccc2c1=O [Example 596, 4-Oxo-7-(2-oxoimidazolidin-1-yl)-N-[1-(trifluoromethyl)cyclobutyl]-1-(2,4,6-trifluorophenyl)-1,4-dihydro-1,8-naphthyridine-3-carboxamide] | 19 |  |  | EC50 (human M2 receptor [2]; [4]): 0.021 µM; Emax (human M2 receptor [2]; M2-GIRK1/4 reporter cells): 98.5%
CC[C@@H](NC(=O)c1cn(-c2ccc(F)cc2F)c2nc(N3CC4CNC(=O)C4C3)ccc2c1=O)C(F)(F)F (single isomer, unassigned) [Example 223] |  | 30 | 0.084 µM | 
CN(C)c1ccc2c(=O)c(C(=O)NC34CC5CC(F)(CC(F)(C5)C3)C4)cn(-c3ccc(F)cc3F)c2n1 [Example 38, 1-(2,4-Difluorophenyl)-N-(3,5-difluorotricyclo[3.3.1.1^3,7]dec-1-yl)-7-(dimethylamino)-4-oxo-1,4-dihydro-1,8-naphthyridine-3-carboxamide] |  | 14 | 0.041 µM | 
CC(C)C(NC(=O)c1cn(-c2c(F)cc(F)cc2F)c2nc(N3CCNC3=O)ccc2c1=O)C(F)(F)F (racemic) [Example 538, 4-Oxo-7-(2-oxoimidazolidin-1-yl)-N-[1,1,1-trifluoro-3-methylbutan-2-yl]-1-(2,4,6-trifluorophenyl)-1,4-dihydro-1,8-naphthyridine-3-carboxamide] | 40 |  |  | EC50 (human M2 receptor [2]; [4]): 0.007 µM; Efficiency (human M2 receptor [2]; M2-GIRK1/4 reporter cells): 100.0%
N#CC1CCCN(c2ccc3c(=O)c(C(=O)NC45CC6CC(CC(C6)C4)C5)cn(-c4ccc(F)cc4F)c3n2)C1 (centres unmarked) [Example 10, 7-(3-Cyanopiperidin-1-yl)-1-(2,4-difluorophenyl)-4-oxo-N-(tricyclo[3.3.1.1^3,7]dec-1-yl)-1,4-dihydro-1,8-naphthyridine-3-carboxamide] |  | 12 | 0.06 µM | 
O=C(N[C@H](c1ccccc1Cl)C(F)(F)F)c1cn(-c2ccc(F)cc2F)c2nc(N3CCCC(O)C3=O)ccc2c1=O (single isomer, unassigned) [Example 207] |  | 18 | 0.035 µM | 
O=C(N[C@H](c1ccccc1Cl)C(F)(F)F)c1cn(-c2ccc(F)cc2F)c2nc(N3CCCC(O)C3=O)ccc2c1=O (single isomer, unassigned) [Example 208] |  | 23 | 0.115 µM | 
CC[C@@H](NC(=O)c1cn(-c2ccc(F)cc2F)c2nc(N3C[C@@H](OC)CC3=O)ccc2c1=O)C(F)(F)F [Example 193, 1-(2,4-Difluorophenyl)-7-[(4S)-4-methoxy-2-oxopyrrolidin-1-yl]-4-oxo-N-[(2R)-1,1,1-trifluorobutan-2-yl]-1,4-dihydro-1,8-naphthyridine-3-carboxamide] |  | 50 | 0.036 µM | 
